Data: patent US11008346B2, “Beta-lactamase inhibitors” (priority 2014, dated 2021)
pIC50: −log10 of the molar value. Like-named read-outs stand apart in the source and are kept apart here.

Assays:
SHV-5 β-lactamase = target: T1, SHV-5 β-lactamase (Klebsiella pneumoniae, UniProt P0A3M1); experiment: β-lactamase enzyme inhibition, SHV-5; format: biochemical
T1 construct: made in house; host or cells: E. coli BL21(DE3)
Method in brief: (§1)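 Native untagged β-lactamases were expressed in E. coli BL21(DE3) and purified. Enzyme was preincubated with inhibitor for 15 min at 37° C., then substrate hydrolysis was followed: nitrocefin 100 μM for p99 AmpC and OXA-1 (486 nm, 10 min), imipenem for KPC-2 (300 nm), cefotaxime for SHV-5 (260 nm). IC50 was derived from initial rates relative to uninhibited controls.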

KPC-2 β-lactamase = target: T2, KPC-2 β-lactamase (Klebsiella pneumoniae, UniProt Q9F663); experiment: β-lactamase enzyme inhibition, KPC-2; format: biochemical
T2 construct: made in house; host or cells: E. coli BL21(DE3)
T2 sequence (Q9F663 25-293, looked up): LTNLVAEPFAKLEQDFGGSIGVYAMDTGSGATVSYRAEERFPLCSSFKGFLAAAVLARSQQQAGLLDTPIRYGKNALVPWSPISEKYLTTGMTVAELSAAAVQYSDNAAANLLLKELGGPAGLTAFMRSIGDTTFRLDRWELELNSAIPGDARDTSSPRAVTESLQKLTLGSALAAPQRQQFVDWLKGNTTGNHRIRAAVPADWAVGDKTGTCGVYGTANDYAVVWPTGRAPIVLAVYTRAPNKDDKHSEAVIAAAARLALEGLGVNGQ
Method in brief: as §1

[1] = target: T3, VIM-2 metallo β-lactamase (Pseudomonas aeruginosa, UniProt Q9K2N0); experiment: β-lactamase enzyme inhibition, VIM-2; format: biochemical; details: Nitrocefin 100 μM, 486 nm; 15 min at 37° C. preincubation; read-out: IC50 VIM-2 (Class B)
T3 construct: made in house; host or cells: E. coli BL21(DE3)
Method in brief: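 VIM-2 purified by Q sepharose anion exchange (50 mM Hepes pH 7.5, 0-600 mM NaCl gradient, two runs, >90% purity). Enzyme preincubated with inhibitor 15 min at 37° C; nitrocefin 100 μM final, absorbance at 486 nm followed 10 min. IC50 from initial hydrolysis rates versus inhibitor-free controls.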

p99 AmpC β-lactamase = target: T4, p99 AmpC β-lactamase (Enterobacter cloacae, UniProt P05364); experiment: β-lactamase enzyme inhibition, p99 AmpC; format: biochemical
T4 construct: made in house; host or cells: E. coli BL21(DE3)
T4 sequence (P05364 21-381): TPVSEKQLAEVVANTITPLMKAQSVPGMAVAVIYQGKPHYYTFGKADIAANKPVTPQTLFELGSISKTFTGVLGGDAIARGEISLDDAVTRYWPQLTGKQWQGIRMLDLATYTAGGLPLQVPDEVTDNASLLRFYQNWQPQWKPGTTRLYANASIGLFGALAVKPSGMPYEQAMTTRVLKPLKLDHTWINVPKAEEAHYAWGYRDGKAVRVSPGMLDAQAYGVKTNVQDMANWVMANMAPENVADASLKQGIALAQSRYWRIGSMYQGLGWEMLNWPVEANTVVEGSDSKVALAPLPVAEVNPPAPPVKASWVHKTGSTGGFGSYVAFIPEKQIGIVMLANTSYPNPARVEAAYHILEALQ
Method in brief: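 Native untagged E. cloacae p99 AmpC was expressed in E. coli BL21(DE3) and purified by cation exchange and gel filtration. Enzyme was preincubated with inhibitor at 37°C for 15 min.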

OXA-1 β-lactamase = target: T5, OXA-1 β-lactamase (Escherichia coli, UniProt P13661); experiment: β-lactamase enzyme inhibition, OXA-1; format: biochemical; details: Nitrocefin 100 μM, 486 nm; 15 min at 37° C. preincubation; read-out: IC50 OXA-1 (Class D)
T5 construct: made in house; host or cells: E. coli BL21(DE3)
T5 sequence (P13661 26-276): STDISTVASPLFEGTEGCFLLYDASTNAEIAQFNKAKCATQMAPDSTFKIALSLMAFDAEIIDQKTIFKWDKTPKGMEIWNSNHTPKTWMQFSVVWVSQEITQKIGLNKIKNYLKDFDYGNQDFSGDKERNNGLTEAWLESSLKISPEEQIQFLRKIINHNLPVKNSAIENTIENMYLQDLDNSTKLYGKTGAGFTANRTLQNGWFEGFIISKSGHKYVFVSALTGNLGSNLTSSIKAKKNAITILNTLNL
Method in brief: as §1

[2] = test system: E. coli ESBL4 expressing CTX-M-15; experiment: broth microdilution MIC, E. coli CTX-M-15; format: cell-based; details: Fixed CAZ (ceftazidime) 4 μg/mL
Method in brief: (§2)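 Visual MIC readout after 16-20 hours at 37° C, reflecting compound concentration that restores growth inhibition by a beta-lactam held constant at 4 μg/mL. Compound was titrated 2-fold, 32 to 0.25 μg/mL final, in cation-adjusted Mueller Hinton broth.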

[3] = test system: E. cloacae 144200 expressing Class C P99 AmpC; experiment: broth microdilution MIC, E. cloacae P99; format: cell-based; details: Fixed CAZ (ceftazidime) 4 μg/mL
Method in brief: as §2

[4] = test system: K. pneumoniae 156319 expressing KPC-3; experiment: broth microdilution MIC, K. pneumoniae KPC-3; format: cell-based; details: Fixed Mero (meropenem) 4 μg/mL
Method in brief: as §2

[5] = test system: P. aeruginosa Ps296 expressing VIM-2; experiment: broth microdilution MIC, P. aeruginosa VIM-2; format: cell-based; details: Fixed Mero (meropenem) 4 μg/mL
Description: (§3) To determine the ability of test compounds to potentiate the inhibition of the growth of bacterial strains that produce beta-lactamase enzymes, classic cell based broth microdilution MIC assays were employed. Six bacteria strains producing beta-lactamase enzymes were used: E. coli expressing the Class A Extended Spectrum Beta-Lactamase (ESBL) CTX-M-15, E. cloacae expressing the Class C P99, K. pneumoniae expressing the Class A carbapenemase KPC-3, P. aeruginosa expressing the Class B carbapenemase VIM-2, K pneumoniae expressing the class A carbapenemase KPC-2 and the class B carbapenemase VIM-4, and S. aureus producing the Class A penicillinase PC-1. The assay was conducted in Cation Adjusted Mueller Hinton Broth (CAMHB, BD #212322, BD Diagnostic Systems, Sparks, Md.). Bacteria strains were grown for 3-5 hours in CAMBH broth. Test compounds were added to a microtiter plate in 2-fold serial dilutions in CAMHB in a final concentration range of 32 μg/mL to 0.25 μg/ml. An overlay of CAMHB containing a Beta-lactam was added to the compounds at a final static concentration of 4 μg/ml. […] In addition to the titration of test compounds the MICs of a panel of control beta-lactams is also tested to ensure the strains are behaving consistently from test to test. Once the test compound and antibiotics are added the plates can be inoculated according to CLSI broth microdilution method. After inoculation the plates are incubated for 16-20 hours at 37° C., then the Minimal Inhibitory Concentration (MIC) of the test compound is determined visually.
(§4) Using the methodology described above, examples of the current invention were evaluated for their ability to inhibit the growth of β-lactamase-producing bacteria in the presence of a β-lactam antibiotic.
(§5) Representative results are shown in Table 4 where A represents an MIC of the fixed β-lactam antibiotic in the presence of >32 µg/mL of a β-lactamase inhibitor of exemplary compounds, B represents the MIC in the presence of between 8 and 32 µg/mL of a β-lactamase inhibitor of exemplary compounds, and C represents the MIC in the presence of ≤4 µg/mL of a β-lactamase inhibitor of exemplary compounds. NT=Not Tested.

[6] = test system: K. pneumoniae A-1797 expressing KPC-2 and VIM-4; experiment: broth microdilution MIC, K. pneumoniae KPC-2 and VIM-4; format: cell-based; details: Fixed Mero (meropenem) 4 μg/mL
Method in brief: as §2

[7] = test system: S. aureus MSSA-7 producing penicillinase PC-1; experiment: broth microdilution MIC, S. aureus PC-1; format: cell-based; details: Fixed Pip (piperacillin) 4 μg/mL
Description: as §3, §4, §5

[8] = imipenem substrate, 300 nm, 15 min at 37° C. preincubation, read-out: IC50 KPC-2 (Class A)

T1 sequence (P0A3M1 22-286): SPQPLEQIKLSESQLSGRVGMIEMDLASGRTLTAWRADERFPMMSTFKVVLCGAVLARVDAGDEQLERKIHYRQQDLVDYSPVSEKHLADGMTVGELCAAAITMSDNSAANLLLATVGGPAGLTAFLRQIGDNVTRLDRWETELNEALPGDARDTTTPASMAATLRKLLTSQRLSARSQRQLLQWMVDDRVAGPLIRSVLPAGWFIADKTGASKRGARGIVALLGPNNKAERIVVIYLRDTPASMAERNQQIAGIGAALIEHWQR

Row | Structure (SMILES) | pIC50 (SHV-5 β-lactamase) | pIC50 (KPC-2 β-lactamase; [8]) | pIC50 [1] | pIC50 (p99 AmpC β-lactamase) | pIC50 (OXA-1 β-lactamase) | MIC of exemplary compounds in presence of fixed β-lactams, E. coli ESBL4 CTX-M-15 [2] | MIC of exemplary compounds in presence of fixed β-lactams, E. cl. 144200 p99 AmpC [3] | MIC of exemplary compounds in presence of fixed β-lactams, K.P. 156319 KPC-3 [4] | MIC of exemplary compounds in presence of fixed β-lactams, P. aerug. Ps296 VIM-2 [5] | MIC of exemplary compounds in presence of fixed β-lactams, K.P. A-1797 KPC-2 VIM-4 [6] | MIC of exemplary compounds in presence of fixed β-lactams, S. aureus MSSA-7 PC-1 [7] | pIC50 (KPC-2 β-lactamase)
1 | CC(=O)NCCC(=O)N[C@H]1Cc2cccc(C(=O)O)c2OB1O [Example 20, (R)-3-(3-Acetylamino-propionylamino)-2-hydroxy-3,4-dihydro-2H-benzo[e][1,2]oxaborinine-8-carboxylicacid] | > 7.00 | > 7.00 | 5.00 to 6.00 | > 7.00 | > 7.00 | C (C represents the MIC in the presence of ≤4 g/mL of a β-lactamase inhibitor) | C (C represents the MIC in the presence of ≤4 g/mL of a β-lactamase inhibitor) | C (C represents the MIC in the presence of ≤4 g/mL of a β-lactamase inhibitor) | A (A represents an MIC of the fixed β-lactam antibiotic in the presence of >32 g/mL of a β-lactamase inhibitor) | B (B represents the MIC in the presence of between 8 and 32 g/mL of a β-lactamase inhibitor) | B (B represents the MIC in the presence of between 8 and 32 g/mL of a β-lactamase inhibitor) | 
2 | CC(C)CC(=O)N[C@H]1Cc2cccc(C(=O)O)c2OB1O [Example 6, (R)-2-Hydroxy-3-(3-methyl-butyrylamino)-3,4-dihydro-2H-benzo[e][1,2]oxaborinine-8-carboxylic acid] | > 7.00 | > 7.00 | 5.00 to 6.00 | > 7.00 | > 7.00 | C (C represents the MIC in the presence of ≤4 g/mL of a β-lactamase inhibitor) | C (C represents the MIC in the presence of ≤4 g/mL of a β-lactamase inhibitor) | C (C represents the MIC in the presence of ≤4 g/mL of a β-lactamase inhibitor) | B (B represents the MIC in the presence of between 8 and 32 g/mL of a β-lactamase inhibitor) | A (A represents an MIC of the fixed β-lactam antibiotic in the presence of >32 g/mL of a β-lactamase inhibitor) | C (C represents the MIC in the presence of ≤4 g/mL of a β-lactamase inhibitor) | 
3 | CS(=O)(=O)NCCC(=O)N[C@H]1Cc2cccc(C(=O)O)c2OB1O [Example 22, (R)-2-Hydroxy-3-(3-methanesulfonylamino-propionylamino)-3,4-dihydro-2H-benzo[e][1,2]oxaborinine-8-carboxylic acid] | > 7.00 |  | 5.00 to 6.00 | > 7.00 | > 7.00 | C (C represents the MIC in the presence of ≤4 g/mL of a β-lactamase inhibitor) | C (C represents the MIC in the presence of ≤4 g/mL of a β-lactamase inhibitor) | C (C represents the MIC in the presence of ≤4 g/mL of a β-lactamase inhibitor) | B (B represents the MIC in the presence of between 8 and 32 g/mL of a β-lactamase inhibitor) | B (B represents the MIC in the presence of between 8 and 32 g/mL of a β-lactamase inhibitor) | C (C represents the MIC in the presence of ≤4 g/mL of a β-lactamase inhibitor) | > 7.00
4 | CCOCC(=O)N[C@H]1Cc2cccc(C(=O)O)c2OB1O [Example 25, (R)-3-(2-ethoxyacetamido)-2-hydroxy-3,4-dihydro-2H-benzo[e][1,2]oxaborinine-8-carboxylic acid] | > 7.00 | > 7.00 | 5.00 to 6.00 | > 7.00 | > 7.00 | C (C represents the MIC in the presence of ≤4 g/mL of a β-lactamase inhibitor) | C (C represents the MIC in the presence of ≤4 g/mL of a β-lactamase inhibitor) | C (C represents the MIC in the presence of ≤4 g/mL of a β-lactamase inhibitor) | C (C represents the MIC in the presence of ≤4 g/mL of a β-lactamase inhibitor) | B (B represents the MIC in the presence of between 8 and 32 g/mL of a β-lactamase inhibitor) | C (C represents the MIC in the presence of ≤4 g/mL of a β-lactamase inhibitor) | 
5 | O=C(CCn1ccnc1)N[C@H]1Cc2cccc(C(=O)O)c2OB1O [Example 29, (R)-2-Hydroxy-3-(3-imidazol-1-yl-propionylamino)-3,4-dihydro-2H-benzo[e][1,2]oxaborinine-8-carboxylic acid] | > 7.00 | > 7.00 | 5.00 to 6.00 | > 7.00 | > 7.00 | C (C represents the MIC in the presence of ≤4 g/mL of a β-lactamase inhibitor) | C (C represents the MIC in the presence of ≤4 g/mL of a β-lactamase inhibitor) | C (C represents the MIC in the presence of ≤4 g/mL of a β-lactamase inhibitor) | C (C represents the MIC in the presence of ≤4 g/mL of a β-lactamase inhibitor) | A (A represents an MIC of the fixed β-lactam antibiotic in the presence of >32 g/mL of a β-lactamase inhibitor) | C (C represents the MIC in the presence of ≤4 g/mL of a β-lactamase inhibitor) | 
6 | N#CCC(=O)N[C@H]1Cc2cccc(C(=O)O)c2OB1O [Example 2, (R)-3-(2-Cyano-acetylamino)-2-hydroxy-3,4-dihydro-2H-benzo[e] [1,2]oxaborinine-8-carboxylic acid] | > 7.00 | 6.00 to 7.00 | 5.00 to 6.00 | > 7.00 | > 7.00 | C (C represents the MIC in the presence of ≤4 g/mL of a β-lactamase inhibitor) | C (C represents the MIC in the presence of ≤4 g/mL of a β-lactamase inhibitor) | C (C represents the MIC in the presence of ≤4 g/mL of a β-lactamase inhibitor) | B (B represents the MIC in the presence of between 8 and 32 g/mL of a β-lactamase inhibitor) | C (C represents the MIC in the presence of ≤4 g/mL of a β-lactamase inhibitor) | C (C represents the MIC in the presence of ≤4 g/mL of a β-lactamase inhibitor) | 
